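Tested at 5 concentrations; 48 h exposure; 96-well plates; endpoints linearly interpolated, else capped at highest concentration. Here, GI50 denotes the concentration required for 50% inhibition of growth. Definition used: TGI = concentration required for complete inhibition of growth.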
Columns and labels:
Test in all cases: growth of human tumour cells (NCI), 48 h
[1] = test system: 786-0 renal
[2] = test system: A498 renal
[3] = test system: A549 NSCLC
[4] = test system: ACHN renal
[5] = test system: BT-549 breast
[6] = test system: CAKI-1 renal
[7] = test system: CCRF-CEM leukemia
[8] = test system: COLO 205 colon
[9] = test system: DU-145 prostate
[10] = test system: HCC-2998 colon
[11] = test system: HCT-15 colon
[12] = test system: HL-60(TB) leukemia
[13] = test system: HOP-62 NSCLC
[14] = test system: HS 578T breast
[15] = test system: HT29 colon
[16] = test system: IGROV1 ovarian
[17] = test system: K-562 leukemia
[18] = test system: KM12 colon
[19] = test system: LOX IMVI melanoma
[20] = test system: M14 melanoma
[21] = test system: MALME-3M melanoma
[22] = test system: MCF7 breast
[23] = test system: MDA-MB-231 breast
[24] = test system: MDA-MB-435
[25] = test system: MOLT-4 leukemia
[26] = test system: NCI-H23 lung
[27] = test system: NCI-H460 lung
[28] = test system: NCI-H522 lung
[29] = test system: NCI/ADR-RES ovarian
[30] = test system: OVCAR-3 ovarian
[31] = test system: OVCAR-4 ovarian
[32] = test system: OVCAR-5 ovarian
[33] = test system: OVCAR-8 ovarian
[34] = test system: PC-3 prostate
[35] = test system: RPMI-8226 leukemia
[36] = test system: RXF 393 renal
[37] = test system: SF-268 CNS
[38] = test system: SF-539 CNS
[39] = test system: SK-MEL-2 melanoma
[40] = test system: SK-MEL-28 melanoma
[41] = test system: SK-MEL-5 melanoma
[42] = test system: SK-OV-3 ovarian
[43] = test system: SN12C renal
[44] = test system: SNB-19 CNS
[45] = test system: SR leukemia
[46] = test system: SW-620 colon
[47] = test system: T-47D breast
[48] = test system: TK-10 renal
[49] = test system: U251 CNS
[50] = test system: UACC-257 melanoma
[51] = test system: UACC-62 melanoma
[52] = test system: UO-31 renal

Which results are given for COc1ccc(C(=O)/C=C/c2cc(-c3cc(OC)c(OC)c(OC)c3)n[nH]2)cc1OC?
GI50 [1]: 1.4 µM; TGI [1]: 2.86 µM; GI50 [2]: 1.48 µM; TGI [2]: 2.98 µM; GI50 [3]: 1.86 µM; TGI [3]: 4.59 µM; GI50 [4]: 1.66 µM; TGI [4]: 3.09 µM; GI50 [5]: 1.44 µM; TGI [5]: 2.9 µM; GI50 [6]: 2.2 µM; TGI [6]: 5.46 µM; GI50 [7]: 0.626 µM; TGI [7]: 3.93 µM; GI50 [8]: 1.74 µM; TGI [8]: 3.21 µM; GI50 [9]: 0.55 µM; TGI [9]: 1.84 µM; GI50 [10]: 2.13 µM; TGI [10]: 3.78 µM; GI50 [11]: 1.27 µM; TGI [11]: 2.85 µM; GI50 [12]: 1.44 µM; TGI [12]: 4.18 µM; GI50 [13]: 1.44 µM; TGI [13]: 2.77 µM; GI50 [14]: 2.57 µM; TGI [14]: 8.2 µM; GI50 [15]: 1.62 µM; TGI [15]: 3.05 µM; GI50 [16]: 1.8 µM; TGI [16]: 3.41 µM; GI50 [17]: 1.91 µM; TGI [17]: 7.12 µM; GI50 [18]: 1.07 µM; TGI [18]: 2.41 µM; GI50 [19]: 1.38 µM; TGI [19]: 2.76 µM; GI50 [20]: 1.84 µM; TGI [20]: 3.69 µM; GI50 [21]: 1.99 µM; TGI [21]: 3.68 µM; GI50 [22]: 0.482 µM; TGI [22]: 1.95 µM; GI50 [23]: 1.48 µM; TGI [23]: 3.06 µM; GI50 [24]: 1.34 µM; TGI [24]: 2.71 µM; GI50 [25]: 2.11 µM; TGI [25]: 5.56 µM; GI50 [26]: 2.15 µM; TGI [26]: 5.24 µM; GI50 [27]: 1.41 µM; TGI [27]: 3.33 µM; GI50 [28]: 0.184 µM; TGI [28]: 0.39 µM; GI50 [29]: 3.13 µM; TGI [29]: 15.7 µM; GI50 [30]: 1.68 µM; TGI [30]: 3.17 µM; GI50 [31]: 2.69 µM; TGI [31]: 16.6 µM; GI50 [32]: 1.59 µM; TGI [32]: 3.03 µM; GI50 [33]: 1.32 µM; TGI [33]: 2.73 µM; GI50 [34]: 1.36 µM; TGI [34]: 2.8 µM; GI50 [35]: 0.241 µM; TGI [35]: 1.11 µM; GI50 [36]: 1.35 µM; TGI [36]: 2.66 µM; GI50 [37]: 1.82 µM; TGI [37]: 3.96 µM; GI50 [38]: 1.27 µM; TGI [38]: 2.6 µM; GI50 [39]: 1.85 µM; TGI [39]: 3.51 µM; GI50 [40]: 1.78 µM; TGI [40]: 3.34 µM; GI50 [41]: 1.65 µM; TGI [41]: 3.03 µM; GI50 [42]: 2.79 µM; TGI [42]: 7.83 µM; GI50 [43]: 1.54 µM; TGI [43]: 3.13 µM; GI50 [44]: 1.42 µM; TGI [44]: 3.01 µM; GI50 [45]: 0.278 µM; TGI [45]: > 100 µM; GI50 [46]: 1.37 µM; TGI [46]: 2.99 µM; GI50 [47]: 1.63 µM; TGI [47]: 4.36 µM; GI50 [48]: 1.33 µM; TGI [48]: 2.6 µM; GI50 [49]: 1.23 µM; TGI [49]: 2.48 µM; GI50 [50]: 1.49 µM; TGI [50]: 2.83 µM; GI50 [51]: 1.74 µM; TGI [51]: 3.22 µM; GI50 [52]: 1.28 µM; TGI [52]: 2.57 µM

— PubChem BioAssay (NCI)
